Source: PubChem BioAssay (NCI)
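Where inhibition never reached the appropriate level, the endpoint shown equals the highest concentration tested. Otherwise, values were interpolated linearly from a five-concentration, 48-hour dose response in 96-well plates. Abbreviation: GI50, concentration required for 50% inhibition of growth. TGI marks complete inhibition of growth.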

How the values were obtained:
Assay in all cases: inhibition of tumour cell growth, NCI panel, 48 h
A498 renal = tested on: A498 renal
HCC-2998 colon = tested on: HCC-2998 colon
HT29 colon = tested on: HT29 colon
IGROV1 ovarian = tested on: IGROV1 ovarian
NCI-H522 lung = tested on: NCI-H522 lung
OVCAR-5 ovarian = tested on: OVCAR-5 ovarian
RPMI-8226 leukemia = tested on: RPMI-8226 leukemia
SF-268 CNS = tested on: SF-268 CNS
SNB-19 CNS = tested on: SNB-19 CNS
UACC-62 melanoma = tested on: UACC-62 melanoma

With `COC(=O)/C(=N/NC(=O)C[N+](C)(C)C)C(C(=O)OC)C(=O)C(=O)Nc1ccc(F)cc1` (centres undefined) the TGI (A498 renal) was greater than 100 µM, the TGI (HCC-2998 colon) was greater than 100 µM and the TGI (HT29 colon) was greater than 100 µM. The TGI (IGROV1 ovarian) was greater than 100 µM, the TGI (NCI-H522 lung) was greater than 100 µM and the TGI (OVCAR-5 ovarian) was greater than 100 µM. It also gave a TGI (RPMI-8226 leukemia) greater than 100 µM, a TGI (SF-268 CNS) greater than 100 µM and a TGI (SNB-19 CNS) greater than 100 µM. It also gave a TGI (UACC-62 melanoma) greater than 100 µM.
Work on `C=C1C(=O)O[C@H]2[C@H]1CC/C(COC(=O)c1ccc3ccccc3c1)=C\CC[C@@]1(C)O[C@@H]21` yielded a GI50 (A498 renal) of 1.88 µM, a TGI (A498 renal) of 4.5 µM and a GI50 (HCC-2998 colon) of 1.75 µM. For the same compound, the TGI (HCC-2998 colon) was 3.36 µM, the GI50 (HT29 colon) was 0.438 µM and the TGI (HT29 colon) was 1.65 µM. The GI50 (IGROV1 ovarian) was 0.703 µM, the TGI (IGROV1 ovarian) was 2.19 µM and the GI50 (NCI-H522 lung) was 0.739 µM. It also gave a TGI (NCI-H522 lung) of 2.2 µM, a GI50 (OVCAR-5 ovarian) of 1.59 µM and a TGI (OVCAR-5 ovarian) of 3.57 µM. It also gave a GI50 (RPMI-8226 leukemia) of 0.281 µM, a TGI (RPMI-8226 leukemia) of 0.869 µM and a GI50 (SF-268 CNS) of 1.28 µM. It also gave a TGI (SF-268 CNS) of 2.75 µM, a GI50 (SNB-19 CNS) of 1.36 µM and a TGI (SNB-19 CNS) of 2.75 µM. It also gave a GI50 (UACC-62 melanoma) of 1.22 µM and a TGI (UACC-62 melanoma) of 2.53 µM.
`COc1ccc(/C=C/c2nccc3ccccc23)cc1OC` was tested, and the TGI (A498 renal) was greater than 10 µM, the TGI (HCC-2998 colon) was greater than 10 µM and the TGI (HT29 colon) was greater than 10 µM. The TGI (IGROV1 ovarian) was greater than 10 µM, the TGI (NCI-H522 lung) was greater than 10 µM and the TGI (OVCAR-5 ovarian) was greater than 10 µM. The TGI (RPMI-8226 leukemia) was greater than 10 µM, the TGI (SF-268 CNS) was greater than 10 µM and the TGI (SNB-19 CNS) was greater than 10 µM. For the same compound, the TGI (UACC-62 melanoma) was greater than 10 µM.
`COc1cc(C2=NOC(c3cc(OC)c(OC)c(OC)c3)C2)ccc1OCCCCOc1cc2c(cc1OC)C(=O)N1CCC[C@H]1C=N2` (some centres undefined) showed a GI50 (A498 renal) of 0.194 µM, a TGI (A498 renal) of 0.396 µM and a GI50 (HCC-2998 colon) of 0.192 µM. The TGI (HCC-2998 colon) was 0.367 µM, the GI50 (HT29 colon) was 0.358 µM and the TGI (HT29 colon) was greater than 33.2 µM. For the same compound, the GI50 (IGROV1 ovarian) was 0.243 µM, the TGI (IGROV1 ovarian) was 0.537 µM and the GI50 (NCI-H522 lung) was 0.217 µM. It also gave a TGI (NCI-H522 lung) of 2.13 µM, a GI50 (OVCAR-5 ovarian) of 0.4 µM and a TGI (OVCAR-5 ovarian) of 1.26 µM. The GI50 (RPMI-8226 leukemia) was 0.271 µM, the TGI (RPMI-8226 leukemia) was 0.682 µM and the GI50 (SF-268 CNS) was 0.4 µM. It also gave a TGI (SF-268 CNS) of 5.68 µM, a GI50 (SNB-19 CNS) of 1.31 µM and a GI50 (UACC-62 melanoma) of 0.171 µM. The TGI (UACC-62 melanoma) was 0.335 µM.
Work on `CCCCN=C(NC#N)NCCCC` yielded a TGI (A498 renal) greater than 100 µM, a TGI (HCC-2998 colon) greater than 100 µM and a TGI (HT29 colon) greater than 100 µM. The TGI (IGROV1 ovarian) was greater than 100 µM, the TGI (NCI-H522 lung) was greater than 100 µM and the TGI (OVCAR-5 ovarian) was greater than 100 µM. The TGI (RPMI-8226 leukemia) was greater than 100 µM, the TGI (SF-268 CNS) was greater than 100 µM and the TGI (SNB-19 CNS) was greater than 100 µM. For the same compound, the TGI (UACC-62 melanoma) was greater than 100 µM.
`COc1ccc(NC2=CC(=O)C(=O)c3ccccc32)nn1` was tested, and the TGI (A498 renal) was 3.29 µM, the TGI (HCC-2998 colon) was 21.2 µM and the TGI (HT29 colon) was 3.54 µM. The TGI (IGROV1 ovarian) was 11.1 µM, the TGI (NCI-H522 lung) was 2.16 µM and the TGI (OVCAR-5 ovarian) was 3.45 µM. The TGI (RPMI-8226 leukemia) was 5.34 µM, the TGI (SF-268 CNS) was 6.95 µM and the TGI (SNB-19 CNS) was 18.1 µM. It also gave a TGI (UACC-62 melanoma) of 3.01 µM.
`O=c1c2cc([N+](=O)[O-])ccc2sc2ccsc12` was tested, and the TGI (A498 renal) was greater than 100 µM, the TGI (HCC-2998 colon) was greater than 100 µM and the TGI (HT29 colon) was greater than 100 µM. The TGI (IGROV1 ovarian) was greater than 100 µM, the TGI (NCI-H522 lung) was greater than 100 µM and the TGI (OVCAR-5 ovarian) was greater than 100 µM. The TGI (RPMI-8226 leukemia) was greater than 100 µM, the TGI (SF-268 CNS) was greater than 100 µM and the TGI (SNB-19 CNS) was greater than 100 µM. The TGI (UACC-62 melanoma) was greater than 100 µM.
`CCOc1cc2c(Cl)ncnc2c(OCC)c1OCC` was tested, and the GI50 (A498 renal) was 6.48 µM, the TGI (A498 renal) was 19.1 µM and the GI50 (HCC-2998 colon) was 1.88 µM. It also gave a TGI (HCC-2998 colon) of 3.59 µM, a GI50 (HT29 colon) of 7.59 µM and a TGI (HT29 colon) of 32.9 µM. For the same compound, the GI50 (IGROV1 ovarian) was 1.6 µM, the TGI (IGROV1 ovarian) was 3.53 µM and the GI50 (NCI-H522 lung) was 9.67 µM. It also gave a TGI (NCI-H522 lung) of 23.5 µM, a GI50 (OVCAR-5 ovarian) of 17.9 µM and a TGI (OVCAR-5 ovarian) of 33.4 µM. For the same compound, the GI50 (RPMI-8226 leukemia) was 3.29 µM, the TGI (RPMI-8226 leukemia) was 20.6 µM and the GI50 (SF-268 CNS) was 2.84 µM. The TGI (SF-268 CNS) was 7.9 µM, the GI50 (SNB-19 CNS) was 8.8 µM and the TGI (SNB-19 CNS) was 21.4 µM. The GI50 (UACC-62 melanoma) was 6.99 µM and the TGI (UACC-62 melanoma) was 20.2 µM.
`COC12C=C(C)C(CC1)CC2C(=O)O` (centres undefined) showed a TGI (A498 renal) greater than 100 µM, a TGI (HCC-2998 colon) greater than 100 µM and a TGI (HT29 colon) greater than 100 µM. The TGI (IGROV1 ovarian) was greater than 100 µM, the TGI (NCI-H522 lung) was greater than 100 µM and the TGI (OVCAR-5 ovarian) was greater than 100 µM. The TGI (RPMI-8226 leukemia) was greater than 100 µM, the TGI (SF-268 CNS) was greater than 100 µM and the TGI (SNB-19 CNS) was greater than 100 µM. For the same compound, the TGI (UACC-62 melanoma) was greater than 100 µM.
